Assay results as given in patent US10370412B2, “Beta-hairpin peptidomimetics” (Polyphor AG, priority 2013, dated 2019).
Where a SMILES comes first, the peptide text is derived from it. [ ]: non-standard residue; d: D form. Cha = N[C@@H](CC1CCCCC1)C(=O)O; Chg = N[C@H](C(=O)O)C1CCCCC1; Tle = CC(C)(C)[C@H](N)C(=O)O; dDab = NCC[C@@H](N)C(=O)O; Orn = NCCC[C@H](N)C(=O)O; Dab = NCC[C@H](N)C(=O)O

Test system: human red blood cells (hRBC)
Type: cell-based
Conditions: red cells of human, 1 h
Description: The peptides were tested for their hemolytic activity against human red blood cells (hRBC). Fresh hRBC were washed three times with phosphate buffered saline (PBS) and centrifuged for 10 min at 2000×g. Compounds (100 μg/ml) were incubated with 20% hRBC (v/v) for 1 h at 37° C. and shaking at 300 rpm. The final erythrocyte concentration was approximately 0.9×10^9 cells/ml. A value of 0% and 100% cell lyses, respectively, was determined by incubation of hRBC in the presence of PBS containing 0.001% acetic acid and 2.5% Triton X-100 in H2O, respectively. The samples were centrifuged, the supernatants were 8-fold diluted in PBS buffer and the optical densities (OD) were measured at 540 nm. The 100% lyses value (OD540H2O) gave an OD540 of approximately 0.5-1.0. Percent hemolysis was calculated as follows: (OD540peptide/OD540H2O)×100%.

Structure (SMILES) | Hemolysis at 100 μg/ml [%]
CC(C)C[C@@H]1NC(=O)[C@@H]2CCCN2C(=O)[C@H]2CCCN2C(=O)[C@H](CO)NC(=O)[C@H](CO)NC(=O)[C@H](C(C)(C)C)NC(=O)[C@H](CCN)NC(=O)[C@H](Cc2c[nH]c3ccccc23)NC(=O)[C@H](CCN)NC(=O)[C@@H](CCN)NC(=O)[C@H](CCCN)NC(=O)[C@H](CCN)NC(=O)[C@H](Cc2ccc(O)cc2)NC(=O)[C@H](Cc2c[nH]cn2)NC1=O [compound 30, cyclo(-Leu-His-Tyr-Dab-Orn-^DDab-Dab-Trp-Dab-tBuGly-Ser-Ser-^DPro-Pro-)] (cyclo(LHY[Dab][Orn][dDab][Dab]W[Dab][Tle]SS[dP]P)) | 1
CC(C)C[C@@H]1NC(=O)[C@@H]2CCCN2C(=O)[C@H]2CCCN2C(=O)[C@H](CO)NC(=O)[C@H](CO)NC(=O)[C@H](CC2CCCCC2)NC(=O)[C@H](CCN)NC(=O)[C@H](Cc2c[nH]c3ccccc23)NC(=O)[C@H](CCN)NC(=O)[C@@H](CCN)NC(=O)[C@H](CCCCN)NC(=O)[C@H](CCN)NC(=O)[C@H](Cc2ccc(O)cc2)NC(=O)[C@H](Cc2c[nH]c3ccccc23)NC1=O [compound 31, cyclo(-Leu-Trp-Tyr-Dab-Lys-^DDab-Dab-Trp-Dab-Cha-Ser-Ser-^DPro-Pro-)] (cyclo(LWY[Dab]K[dDab][Dab]W[Dab][Cha]SS[dP]P)) | 1
CC(C)C[C@@H]1NC(=O)[C@@H]2CCCN2C(=O)[C@H]2CCCN2C(=O)[C@H](CO)NC(=O)[C@H](CO)NC(=O)[C@H](CC2CCCCC2)NC(=O)[C@H](CCN)NC(=O)[C@H](Cc2c[nH]c3ccccc23)NC(=O)[C@H](CCN)NC(=O)[C@@H](CCN)NC(=O)[C@H](CCCN)NC(=O)[C@H](CCN)NC(=O)[C@H](Cc2ccc(O)cc2)NC(=O)[C@H](Cc2c[nH]c3ccccc23)NC1=O [compound 32, cyclo(-Leu-Trp-Tyr-Dab-Orn-^DDab-Dab-Trp-Dab-Cha-Ser-Ser-^DPro-Pro-)] (cyclo(LWY[Dab][Orn][dDab][Dab]W[Dab][Cha]SS[dP]P)) | 3
CC(C)C[C@@H]1NC(=O)[C@@H]2CCCN2C(=O)[C@H]2CCCN2C(=O)[C@H](CO)NC(=O)[C@H](CC(N)=O)NC(=O)[C@H](C(C)(C)C)NC(=O)[C@H](CCN)NC(=O)[C@H](Cc2c[nH]c3ccccc23)NC(=O)[C@H](CCN)NC(=O)[C@@H](CCN)NC(=O)[C@H](CCCN)NC(=O)[C@H](CCN)NC(=O)[C@H](Cc2ccc(O)cc2)NC(=O)[C@H](Cc2ccc(O)cc2)NC1=O [compound 33, cyclo(-Leu-Tyr-Tyr-Dab-Orn-^DDab-Dab-Trp-Dab-tBuGly-Asn-Ser-^DPro-Pro-)] (cyclo(LYY[Dab][Orn][dDab][Dab]W[Dab][Tle]NS[dP]P)) | 5
CC(C)C[C@@H]1NC(=O)[C@@H]2CCCN2C(=O)[C@H]2CCCN2C(=O)[C@H](CO)NC(=O)[C@H](C)NC(=O)[C@H](C2CCCCC2)NC(=O)[C@H](CCN)NC(=O)[C@H](Cc2c[nH]c3ccccc23)NC(=O)[C@H](CCN)NC(=O)[C@@H](CCN)NC(=O)[C@H](CCCN)NC(=O)[C@H](CCN)NC(=O)[C@H](C(C)(C)C)NC(=O)[C@H](Cc2c[nH]c3ccccc23)NC1=O [compound 34, cyclo(-Leu-Trp-tBuGly-Dab-Orn-^DDab-Dab-Trp-Dab-Chg-Ala-Ser-^DPro-Pro-)] (cyclo(LW[Tle][Dab][Orn][dDab][Dab]W[Dab][Chg]AS[dP]P)) | 1
CC[C@H](C)[C@@H]1NC(=O)[C@@H]2CCCN2C(=O)[C@H]2CCCN2C(=O)[C@H](CO)NC(=O)[C@H](C)NC(=O)[C@H](CC2CCCCC2)NC(=O)[C@H](CCN)NC(=O)[C@H](Cc2c[nH]c3ccccc23)NC(=O)[C@H](CCN)NC(=O)[C@@H](CCN)NC(=O)[C@H](CCCCN)NC(=O)[C@H](CCN)NC(=O)[C@H](C(C)(C)C)NC(=O)[C@H](Cc2c[nH]c3ccccc23)NC1=O [compound 35, cyclo(-Ile-Trp-tBuGly-Dab-Lys-^DDab-Dab-Trp-Dab-Cha-Ala-Ser-^DPro-Pro-)] (cyclo(IW[Tle][Dab]K[dDab][Dab]W[Dab][Cha]AS[dP]P)) | 1
CC(C)C[C@@H]1NC(=O)[C@@H]2CCCN2C(=O)[C@H]2CCCN2C(=O)[C@H](CO)NC(=O)[C@H](CO)NC(=O)[C@H](C2CCCCC2)NC(=O)[C@H](CCN)NC(=O)[C@H](Cc2c[nH]c3ccccc23)NC(=O)[C@H](CCN)NC(=O)[C@@H](CCN)NC(=O)[C@H](CCCN)NC(=O)[C@H](CCN)NC(=O)[C@H](C(C)(C)C)NC(=O)[C@H](Cc2c[nH]c3ccccc23)NC1=O [compound 36, cyclo(-Leu-Trp-tBuGly-Dab-Orn-^DDab-Dab-Trp-Dab-Chg-Ser-Ser-^DPro-Pro-)] (cyclo(LW[Tle][Dab][Orn][dDab][Dab]W[Dab][Chg]SS[dP]P)) | 1
CC(C)C[C@@H]1NC(=O)[C@@H]2CCCN2C(=O)[C@H]2CCCN2C(=O)[C@H](CO)NC(=O)[C@H](CO)NC(=O)[C@H](C(C)(C)C)NC(=O)[C@H](CCN)NC(=O)[C@H](Cc2c[nH]c3ccccc23)NC(=O)[C@H](CCN)NC(=O)[C@@H](CCN)NC(=O)[C@H](CCCN)NC(=O)[C@H](CCN)NC(=O)[C@H](CC2CCCCC2)NC(=O)[C@H](Cc2c[nH]c3ccccc23)NC1=O [compound 37, cyclo(-Leu-Trp-Cha-Dab-Orn-^DDab-Dab-Trp-Dab-tBuGly-Ser-Ser-^DPro-Pro-)] (cyclo(LW[Cha][Dab][Orn][dDab][Dab]W[Dab][Tle]SS[dP]P)) | 1
CC(C)C[C@@H]1NC(=O)[C@@H]2CCCN2C(=O)[C@H]2CCCN2C(=O)[C@H](CO)NC(=O)[C@H](Cc2ccc(O)cc2)NC(=O)[C@H](C(C)(C)C)NC(=O)[C@H](CCN)NC(=O)[C@H](Cc2c[nH]c3ccccc23)NC(=O)[C@H](CCN)NC(=O)[C@@H](CCN)NC(=O)[C@H](CCCN)NC(=O)[C@H](CCN)NC(=O)[C@H](Cc2ccc(O)cc2)NC(=O)[C@H](Cc2ccc(O)cc2)NC1=O [compound 38, cyclo(-Leu-Tyr-Tyr-Dab-Orn-^DDab-Dab-Trp-Dab-tBuGly-Tyr-Ser-^DPro-Pro-)] (cyclo(LYY[Dab][Orn][dDab][Dab]W[Dab][Tle]YS[dP]P)) | 0
